In the supplement of paper PMC5770543:
± gives the standard deviation.

How the values were obtained:
[1] = test system: Toxoplasma gondii RH tachyzoites; experiment: % growth inhibition vs DMSO (48 h luciferase); higher = more inhibition; settings: 10 µM
[2] = test system: Toxoplasma gondii RH tachyzoites; experiment: plaque count per well; higher = less inhibition; extreme values may be limits of the assay; settings: 10 µM; 8-10 days
Outline: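 The per-well plaque count reflects delayed-death inhibition of parasite growth. Each well of a six-well plate with a confluent HFF monolayer, preseeded with compound at 10 µM, was given fifty T. gondii RH tachyzoites. Plates sat undisturbed for 8 to 10 days before methanol fixation and crystal violet staining. Plaques were then imaged and counted per well with ImageJ, alongside untreated wells and wells treated with 1% DMSO.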

[3] = test system: Toxoplasma gondii RH tachyzoites; experiment: median egress time after A23187 ionophore; higher = stronger egress inhibition; settings: 10 µM; pretreatment time: 24 h
Protocol: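 T. gondii RH tachyzoites expressing firefly luciferase were grown in HFF monolayers for 48 h with compound. % growth inhibition at 10 µM and EC50 (2-fold dilutions from 10 µM) were read by luminescence relative to 1% DMSO; EC50 listed as 10 (not determined, <80% inhibition) is left out. Plaque assays: 50 tachyzoites per well with 10 µM compound for 8-10 days, giving plaque count and area by crystal violet/ImageJ. Egress: median time to egress after 1 µM A23187 ionophore following 24 h of 10 µM compound (DMSO ~1.8 min; >10 = no egress within 10 min).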

[4] = test system: Plasmodium falciparum 3D7; experiment: EC50 growth inhibition (60 h, SYBR Green); settings: stage: ring-stage start
[5] = test system: Plasmodium falciparum 3D7; experiment: % inhibition of schizont-to-ring transition vs DMSO; higher = more inhibition
Outline: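 Tightly synchronised P. falciparum schizonts (about 40–42 hours post-invasion, 1% parasitemia, 2.5% hematocrit, AlbuMAX-supplemented RPMI) were exposed to compound at 1, 3 or 10 µM, with vehicle and positive controls. Cells were glutaraldehyde-fixed, Triton-permeabilised, stained with Hoechst 33342 and counted by flow cytometry (at least 100,000 events). Schizont-to-ring transition inhibition is new ring formation relative to vehicle controls, averaged over three experiments.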

[6] = test system: Plasmodium falciparum KH004-003 (artemisinin resistant); experiment: R50 (50% reduction of ring formation, egress/invasion); higher = less potent
Protocol: (§1)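 P. falciparum asexual blood stages. EC50: sorbitol-synchronized 3D7 rings were treated with 2-fold dilutions from 10 µM for 60 h, with parasitemia read by SYBR Green I fluorescence; EC50 listed as 10 means not determined and is left out. Stage transition screen: ~40-42 hpi schizonts were treated at 1, 3 and 10 µM; new rings were counted by Hoechst flow cytometry and % inhibition is relative to DMSO controls (mean of 3 experiments). R50: concentration giving 50% reduction of new ring formation versus DMSO in 3D7, K1 and KH004-003, from flow cytometry after 12-20 h treatment of schizonts.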

[7] = test system: Plasmodium falciparum K1 (chloroquine resistant); experiment: as above
Protocol: as §1

[8] = test system: Plasmodium falciparum 3D7; experiment: as above
Protocol: as §1

[9] = target: Toxoplasma gondii RH tachyzoites; experiment: EC50 growth inhibition (48 h luciferase)
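Wherever % growth inhibition vs DMSO (48 h luciferase) is given: tested in triplicate wells of 96-well plates on confluent HFF monolayers, with 1% DMSO wells as negative control in four replicates.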

Row | Structure (SMILES) | % growth inhibition [1] | plaque count per well [2] | median egress time [3] | EC50 growth inhibition [4] | % inhibition of schizont-to-ring transition ([5]; 1 µM) | % inhibition of schizont-to-ring transition ([5]; 3 µM) | % inhibition of schizont-to-ring transition ([5]; 10 µM) | R50 [6] | R50 [7] | R50 [8] | EC50 growth inhibition [9]
1 | Oc1ccccc1CN1CCC2(CCCN(Cc3ccccc3F)C2)C1 (stereo not drawn) | < 0% | 26 | 2.13 min | 1140 nM | 31.4% | 37.7% | 60.6% |  |  |  | 
2 | Cc1cc(NC(=O)c2ccc(-c3ccccc3)cc2)no1 | < 0% | 26 | 2.27 min | 1810 nM | 45.3% | 53.4% | 61.7% |  |  |  | 
3 | CCCCCCc1cc2cc(-c3csc(C=Cc4ccccc4)n3)c(=O)oc2cc1O | 8.97 ± 4.1% | 16 | 1.94 min | 8400 nM | 9.04% | 16% | 39.7% |  |  |  | 
4 | Cc1ccc(C)c(-c2csc(Nc3ccc(C)c(C)c3)n2)c1 | < 0% | 22 | 3.2 min |  | 13.5% | 16% | 20.4% |  |  |  | 
5 | CCOc1cccc(C(=O)Nc2ccc(-c3nc4ccccc4[nH]3)cc2)c1 | < 0% | 28 | 1.87 min |  | 7.94% | 22.4% | 54.6% |  |  |  | 
6 | O=C(NC1CCCCC1)C(c1cccs1)N(CCc1ccccc1)C(=O)c1ccco1 (stereo not drawn) | < 0% | 39 | 2.06 min | 1720 nM | 38.6% | 42% | 46.4% |  |  |  | 
7 | CCOC(=O)c1cn(CC)c2cc(N3CCCCC3)c(F)cc2c1=O | 67.3 ± 6.7% |  |  | 670 nM | 45.5% | 61.4% | 65.5% | 0.155 µM | 1.48 µM | 0.738 µM | 
8 | CCOc1ccccc1CN1CCc2nc3cc(C(C)(C)C)nn3c(O)c2C1 | < 0% | 28 | 1.47 min | 2290 nM | 34.2% | 42.8% | 49.8% |  |  |  | 
9 | OC(Cn1nnc2ccccc21)Cn1c2ccc(Br)cc2c2cc(Br)ccc21 (stereo not drawn) | 22.8 ± 3.4% |  |  |  | < 0% | 30.6% | 45.7% | 0.102 µM | 1.23 µM | 2.87 µM | 
10 | Cc1ccc(Nc2nc(N)c3ccccc3n2)cc1Cl | 98.03 ± 0.51% |  |  | 427 nM | 23.3% | 60.8% | 67.5% |  |  |  | 1980 nM
11 | Cc1cc(Nc2cccc(F)c2)nc(NCc2ccccc2)n1 | 97.33 ± 0.9% |  |  | 149 nM | 43.1% | 60.2% | 70.5% |  |  |  | 879 nM
12 | OC(CNCC1CCCO1)Cn1c2ccc(Cl)cc2c2cc(Cl)ccc21 (stereo not drawn) | 99.23 ± 0.57% |  |  | 394 nM | 5.57% | 44.1% | 65.7% |  |  |  | 4460 nM
13 | O=C(NC(c1ccccc1)c1ccc2cccnc2c1O)c1ccccc1 (stereo not drawn) | 99.71 ± 0.23% |  |  | 3660 nM | 13.5% | 35.6% | 53.7% |  |  |  | 770 nM
14 | COc1cc(CNCCc2ccc(Cl)cc2)cc(OC)c1O | 51.4 ± 14% |  |  | 1780 nM | 3.17% | 4.67% | 38.3% |  |  |  | 5990 nM
15 | O=C(Nc1ccc(N2CCN(Cc3ccccc3)CC2)cc1)c1cccs1 | 91.82 ± 0.81% |  |  | 1870 nM | 22.9% | 21.2% | 39.3% |  |  |  | 183 nM
16 | CCN(CC)CCn1c(=N)n(CC(O)c2ccc(Cl)c(Cl)c2)c2ccccc21 (stereo not drawn) | 85.7 ± 6.1% |  |  | 267 nM | 51% | 73.3% | 78.2% |  |  |  | 1310 nM
17 | CCOC(=O)c1cn(CC)c2cc(N(C)CCc3ccc(OC)c(OC)c3)c(F)cc2c1=O | 97.69 ± 0.15% |  |  | 210 nM | 36.8% | 60.5% | 66.7% |  |  |  | 910 nM
18 | CC(Oc1ccc(NC(=O)c2cccs2)cc1)C(=O)c1ccc(Cl)cc1 (stereo not drawn) | 98.06 ± 0.7% |  |  | 462 nM | 17.7% | 30.4% | 47.3% |  |  |  | 257 nM
19 | COc1cccc(O)c1CN1CCC2(CCCN(Cc3ccc(F)cc3)C2)C1 (stereo not drawn) | 79.6 ± 3.5% |  |  | 409 nM | 42.2% | 68.4% | 72.4% | 1.23 µM | 0.805 µM | 1.91 µM | 
20 | N=c1n(CCN2CCCCC2)c2ccccc2n1CC(=O)c1ccc(Cl)c(Cl)c1 | 99.931 ± 0.065% |  |  | 237 nM | 36.2% | 57.9% | 80.4% |  |  |  | 1820 nM
21 | CCOC(=O)c1cnc2ccc(Cl)cc2c1NCCCN(C)C | 82.2 ± 2.8% |  |  | 1020 nM | 0.181% | 23.3% | 54.9% |  |  |  | 2340 nM
22 | OC1=C2C(=Nc3ccccc3SC2c2ccc(Br)cc2)c2ccccc21 (stereo not drawn) | 99.19 ± 0.75% |  |  | 588 nM | 19.5% | 33.4% | 45.5% |  |  |  | 803 nM
23 | COc1ccc(C2Sc3ccccc3N=C3C2=C(O)c2ccccc23)cc1 (stereo not drawn) | 98.68 ± 0.16% |  |  | 1180 nM | < 0% | 1.15% | 31.1% |  |  |  | 963 nM
24 | COc1ccc(NC(=O)C2c3ccccc3C(=O)N(CC(C)C)C2c2cccs2)cc1Cl (stereo not drawn) | < 0% | 28 |  | 1040 nM | 75.7% | 74.9% | 78.9% | 0.204 µM | 0.183 µM | 0.156 µM | 
25 | CC(C)OCc1cc(CN2CCN(c3cccc(Cl)c3)CC2)c(O)c2ncccc12 | 81.6 ± 18% |  |  | 3170 nM | 7.59% | 35.5% | 53.9% |  |  |  | 1690 nM
